Source: ChEMBL document CHEMBL1143959, “Synthesis and structure-affinity relationships of novel spirocyclic sigma receptor ligands with furopyrazole structure” (Bioorg Med Chem, 2008)
pIC50, pKi: −log10 of the molar value.

Legend:
[1] = Displacement of [3H]ditolylguanidine from sigma 2 […] receptor in rat liver
[2] = Inhibition of adrenergic alpha 1 receptor
[3] = molecular target: Sodium-dependent serotonin transporter (Homo sapiens, UniProt P31645); assay: Inhibition of 5HTT receptor
[4] = molecular target: T1, 5-hydroxytryptamine receptor 1A (Homo sapiens, UniProt P08908); assay: Inhibition of 5HT1A receptor
T1 sequence (P08908 whole entry): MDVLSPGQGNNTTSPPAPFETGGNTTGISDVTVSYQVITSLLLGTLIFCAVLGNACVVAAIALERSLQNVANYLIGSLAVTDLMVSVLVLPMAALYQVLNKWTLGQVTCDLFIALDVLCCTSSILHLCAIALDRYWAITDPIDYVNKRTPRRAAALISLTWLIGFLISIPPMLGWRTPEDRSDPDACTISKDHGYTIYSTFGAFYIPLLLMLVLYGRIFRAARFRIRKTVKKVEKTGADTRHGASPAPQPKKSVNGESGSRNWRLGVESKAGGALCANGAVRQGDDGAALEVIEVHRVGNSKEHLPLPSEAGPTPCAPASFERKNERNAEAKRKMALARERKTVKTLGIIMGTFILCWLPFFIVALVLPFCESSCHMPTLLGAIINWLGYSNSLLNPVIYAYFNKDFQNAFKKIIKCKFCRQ

[5] = Inhibition of adrenergic alpha 2 receptor
[6] = Displacement of [3H]MK-801 from NMDA receptor at 1 uM
[7] = molecular target: Sigma non-opioid intracellular receptor 1 (Cavia porcellus, UniProt Q60492); assay: Displacement of [3H](+)-pentazocine from sigma 1 opioid receptor in guinea pig brain membrane; assay type: cell membranes
Chain of Sigma non-opioid intracellular receptor 1 (Q60492 whole entry): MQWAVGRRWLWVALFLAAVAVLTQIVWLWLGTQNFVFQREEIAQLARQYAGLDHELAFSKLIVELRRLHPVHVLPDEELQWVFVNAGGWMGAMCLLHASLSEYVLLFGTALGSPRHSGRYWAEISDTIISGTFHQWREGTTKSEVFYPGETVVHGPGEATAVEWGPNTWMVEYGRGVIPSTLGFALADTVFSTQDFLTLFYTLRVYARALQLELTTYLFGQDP

[8] = molecular target: Voltage-gated inwardly rectifying potassium channel KCNH2 (Homo sapiens, UniProt Q12809); assay: Inhibition of human ERG channel
Chain of Voltage-gated inwardly rectifying potassium channel KCNH2 (Q12809 whole entry): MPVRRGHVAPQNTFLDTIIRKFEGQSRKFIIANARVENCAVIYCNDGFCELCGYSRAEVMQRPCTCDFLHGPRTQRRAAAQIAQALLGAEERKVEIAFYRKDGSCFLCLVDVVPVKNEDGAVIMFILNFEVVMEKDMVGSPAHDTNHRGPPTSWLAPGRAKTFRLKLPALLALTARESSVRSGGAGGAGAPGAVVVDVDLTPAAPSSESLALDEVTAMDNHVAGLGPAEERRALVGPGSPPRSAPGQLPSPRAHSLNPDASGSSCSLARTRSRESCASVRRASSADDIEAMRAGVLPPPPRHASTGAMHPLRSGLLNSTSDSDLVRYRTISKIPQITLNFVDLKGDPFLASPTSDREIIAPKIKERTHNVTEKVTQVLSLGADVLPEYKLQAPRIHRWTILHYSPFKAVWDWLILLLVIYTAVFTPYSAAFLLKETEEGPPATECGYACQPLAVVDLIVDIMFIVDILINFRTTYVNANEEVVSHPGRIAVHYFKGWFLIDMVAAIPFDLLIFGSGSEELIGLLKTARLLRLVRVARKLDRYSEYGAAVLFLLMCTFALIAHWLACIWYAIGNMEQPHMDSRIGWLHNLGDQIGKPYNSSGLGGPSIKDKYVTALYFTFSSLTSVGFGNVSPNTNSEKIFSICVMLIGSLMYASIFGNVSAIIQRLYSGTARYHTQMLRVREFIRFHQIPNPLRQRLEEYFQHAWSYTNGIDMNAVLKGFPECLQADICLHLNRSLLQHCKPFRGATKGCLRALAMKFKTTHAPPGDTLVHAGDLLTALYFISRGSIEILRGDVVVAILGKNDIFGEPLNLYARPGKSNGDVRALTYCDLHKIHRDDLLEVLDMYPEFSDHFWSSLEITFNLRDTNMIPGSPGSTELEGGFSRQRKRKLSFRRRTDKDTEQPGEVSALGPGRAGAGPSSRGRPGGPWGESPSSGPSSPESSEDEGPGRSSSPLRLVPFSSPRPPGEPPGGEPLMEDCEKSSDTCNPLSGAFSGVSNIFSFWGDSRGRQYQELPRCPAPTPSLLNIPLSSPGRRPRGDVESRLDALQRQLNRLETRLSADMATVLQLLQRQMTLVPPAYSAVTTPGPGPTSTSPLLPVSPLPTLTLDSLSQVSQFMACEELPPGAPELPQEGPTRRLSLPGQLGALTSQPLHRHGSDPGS

Rattus norvegicus = species: Rattus norvegicus; assay: Displacement of [3H]ditolylguanidine from sigma 2 […] receptor in rat liver at 1 uM

Chain of Sodium-dependent serotonin transporter (P31645 whole entry): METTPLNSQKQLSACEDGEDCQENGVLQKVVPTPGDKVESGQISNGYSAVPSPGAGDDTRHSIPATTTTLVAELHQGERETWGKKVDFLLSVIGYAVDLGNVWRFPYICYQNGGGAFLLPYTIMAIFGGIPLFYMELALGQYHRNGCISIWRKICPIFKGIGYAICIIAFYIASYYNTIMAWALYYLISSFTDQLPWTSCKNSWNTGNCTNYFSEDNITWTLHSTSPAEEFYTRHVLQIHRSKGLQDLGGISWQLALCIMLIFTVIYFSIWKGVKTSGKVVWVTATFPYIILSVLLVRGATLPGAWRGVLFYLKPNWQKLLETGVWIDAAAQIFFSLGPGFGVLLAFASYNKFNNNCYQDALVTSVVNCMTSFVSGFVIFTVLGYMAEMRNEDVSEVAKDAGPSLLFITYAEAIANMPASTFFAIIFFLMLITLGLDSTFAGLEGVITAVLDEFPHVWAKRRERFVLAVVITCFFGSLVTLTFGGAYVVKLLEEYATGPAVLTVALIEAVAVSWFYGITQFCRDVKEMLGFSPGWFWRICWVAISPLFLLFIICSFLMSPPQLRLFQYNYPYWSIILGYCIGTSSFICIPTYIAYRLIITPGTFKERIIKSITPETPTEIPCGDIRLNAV

With Cc1ccccc1NC(=N)Nc1ccccc1C [DITOLYLGUANIDINE] the pKi [1] was 7.69.

For COC1OC2(CCN(Cc3ccccc3)CC2)c2cnn(-c3ccccc3)c21 (stereo not drawn), the pIC50 [2] was < 6.00, the pIC50 [3] was < 5.00 and the pIC50 [4] was < 5.00. For the same molecule, the pIC50 [5] was < 6.00, the inhibition [6] was 17% and the pKi [7] was 9.30. It also gave a pIC50 [8] of 9.39 and a pKi [1] of 5.76.

COC1OC2(CCNCC2)c2cnn(-c3ccccc3)c21 (stereo not drawn) gave an inhibition (Rattus norvegicus) of 12%.

Work on c1ccc(-n2ncc3c2CCC3CCN2CCCCC2)cc1 (stereo not drawn) yielded a pKi [1] of 7.44.

For CCCCN1CCC2(CC1)OC(OC)c1c2cnn1-c1ccccc1 (stereo not drawn), the pIC50 [2] was 5.91, the pIC50 [3] was < 5.00 and the pIC50 [4] was < 5.00. The pIC50 [5] was < 6.00, the inhibition [6] was 30% and the pIC50 [8] was 9.19. It also gave a pKi [1] of 5.98.
